# Measured values reported in ChEMBL document CHEMBL4422678, “Design and synthesis of novel dual-cyclic RGD peptides for αvβ3 integrin targeting” (Bioorg Med Chem Lett, 2019).
# Activity calls are given as the source filed them. The rule behind the calls is not given here. *1 amine or outer side, *2 acyl side, *3 side chain or, on linkers, in order; H or OH if unused. Where a SMILES comes first, the peptide text is derived from it. [ ]: non-standard residue; d: D form. The star is where a group is joined. Dolaproine = CO[C@@H]([C@@H]1CCCN1)[C@@H](C)C(=O)O; X1 = O=C(CCCCC(=O)*)N1Cc2ccccc2C#Cc2ccccc21; Dil = CC[C@H](C)[C@H](NC)[C@@H](CC(=O)O)OC; PABC = O=C(OCc1ccc(N[*:1])cc1)[*:2]; X2 = C[C@@H](N*)[C@@H](O)c1ccccc1; NMeV = CN[C@H](C(=O)O)C(C)C
# How the values were obtained:
# [1] = molecular target: T1, Integrin alpha-V/beta-3 (Homo sapiens, UniProt P05106+P06756); assay: Binding affinity to alphaVbeta3 integrin in human SKOV3 cells assessed as inhibition of cell adhesion to fibrinogen measured after 2 hrs by MTT assay; format: cell-based
# Target sequence in this assay (P05106 27-788 limits assumed): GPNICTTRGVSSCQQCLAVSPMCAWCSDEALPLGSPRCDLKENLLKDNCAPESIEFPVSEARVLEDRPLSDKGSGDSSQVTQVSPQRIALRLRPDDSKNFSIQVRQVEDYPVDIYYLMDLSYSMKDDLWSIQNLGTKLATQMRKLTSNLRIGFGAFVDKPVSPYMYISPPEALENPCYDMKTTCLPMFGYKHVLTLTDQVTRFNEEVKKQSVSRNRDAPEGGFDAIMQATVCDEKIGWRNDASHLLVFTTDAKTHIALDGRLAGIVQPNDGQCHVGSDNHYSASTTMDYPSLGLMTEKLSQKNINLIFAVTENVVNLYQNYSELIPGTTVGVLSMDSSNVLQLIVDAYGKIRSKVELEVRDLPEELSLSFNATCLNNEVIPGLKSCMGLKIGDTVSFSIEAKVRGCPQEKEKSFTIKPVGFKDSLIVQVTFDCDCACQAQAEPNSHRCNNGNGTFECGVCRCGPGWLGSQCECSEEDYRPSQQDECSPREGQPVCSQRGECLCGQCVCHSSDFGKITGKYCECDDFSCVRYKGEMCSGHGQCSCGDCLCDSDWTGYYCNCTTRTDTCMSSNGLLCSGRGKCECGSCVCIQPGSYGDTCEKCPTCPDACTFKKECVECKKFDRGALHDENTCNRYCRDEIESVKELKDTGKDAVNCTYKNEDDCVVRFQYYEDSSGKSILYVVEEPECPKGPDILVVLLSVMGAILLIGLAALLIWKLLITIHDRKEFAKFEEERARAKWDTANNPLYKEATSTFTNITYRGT
# Target sequence in this assay (P06756 31-889 limits assumed): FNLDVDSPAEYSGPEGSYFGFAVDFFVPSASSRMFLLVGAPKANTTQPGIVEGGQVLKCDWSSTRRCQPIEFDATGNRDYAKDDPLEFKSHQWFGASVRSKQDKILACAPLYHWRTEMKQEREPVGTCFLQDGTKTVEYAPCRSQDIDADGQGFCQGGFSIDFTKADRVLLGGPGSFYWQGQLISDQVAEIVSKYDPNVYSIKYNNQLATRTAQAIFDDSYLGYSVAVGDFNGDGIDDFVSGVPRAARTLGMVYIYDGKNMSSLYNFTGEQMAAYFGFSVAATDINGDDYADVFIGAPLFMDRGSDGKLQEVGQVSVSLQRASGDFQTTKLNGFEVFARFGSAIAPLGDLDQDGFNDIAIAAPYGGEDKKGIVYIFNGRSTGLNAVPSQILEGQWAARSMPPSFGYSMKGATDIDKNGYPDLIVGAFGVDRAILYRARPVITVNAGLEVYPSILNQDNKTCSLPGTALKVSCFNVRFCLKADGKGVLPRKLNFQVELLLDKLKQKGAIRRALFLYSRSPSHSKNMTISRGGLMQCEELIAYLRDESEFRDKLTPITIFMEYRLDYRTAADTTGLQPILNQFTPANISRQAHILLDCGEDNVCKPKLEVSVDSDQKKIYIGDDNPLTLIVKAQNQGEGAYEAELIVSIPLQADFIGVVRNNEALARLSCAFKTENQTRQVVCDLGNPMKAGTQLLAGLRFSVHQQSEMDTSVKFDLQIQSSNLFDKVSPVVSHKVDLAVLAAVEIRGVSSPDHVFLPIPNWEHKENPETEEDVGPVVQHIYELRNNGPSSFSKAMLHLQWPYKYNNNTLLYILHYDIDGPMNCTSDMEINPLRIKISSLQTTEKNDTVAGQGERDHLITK
# Target sequence in this assay (P06756 891-1048 limits assumed): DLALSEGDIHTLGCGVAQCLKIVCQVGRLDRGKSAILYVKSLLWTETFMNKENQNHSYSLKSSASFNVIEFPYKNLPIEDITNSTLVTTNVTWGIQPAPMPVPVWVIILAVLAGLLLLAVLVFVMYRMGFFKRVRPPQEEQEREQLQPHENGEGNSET
# [2] = test system: SK-OV-3; assay: Cytotoxicity against human SKOV3 cells assessed as inhibition of cell growth at 0.004 uM after 72 hrs by CCK8 assay; format: functional; conditions: SK-OV-3, 72 h, read-out: GI
# [3] = test system: SK-OV-3; assay: Cytotoxicity against human SKOV3 cells assessed as inhibition of cell growth at 0.0004 uM after 72 hrs by CCK8 assay; format: functional; conditions: SK-OV-3, 72 h, read-out: GI
# [4] = test system: SK-OV-3; assay: Cytotoxicity against human SKOV3 cells assessed as inhibition of cell growth at 40 uM after 72 hrs by CCK8 assay; format: functional; conditions: SK-OV-3, 72 h, read-out: GI
# [5] = test system: MCF7; assay: Cytotoxicity against human MCF7 cells assessed as inhibition of cell growth at 4 uM after 72 hrs by CCK8 assay; format: functional; conditions: MCF7, 72 h, read-out: GI
# [6] = test system: MCF7; assay: Cytotoxicity against human MCF7 cells assessed as inhibition of cell growth at 400 uM after 72 hrs by CCK8 assay; format: functional; conditions: MCF7, 72 h, read-out: GI
# [7] = test system: MCF7; assay: Cytotoxicity against human MCF7 cells assessed as inhibition of cell growth at 0.04 uM after 72 hrs by CCK8 assay; format: functional; conditions: MCF7, 72 h, read-out: GI
# [8] = test system: MCF7; assay: Cytotoxicity against human MCF7 cells assessed as inhibition of cell growth at 0.4 uM after 72 hrs by CCK8 assay; format: functional; conditions: MCF7, 72 h, read-out: GI
# [9] = test system: SK-OV-3; assay: Cytotoxicity against human SKOV3 cells assessed as inhibition of cell growth at 0.4 uM after 72 hrs by CCK8 assay; format: functional; conditions: SK-OV-3, 72 h, read-out: GI
# [10] = test system: MCF7; assay: Cytotoxicity against human MCF7 cells assessed as inhibition of cell growth at 0.0004 uM after 72 hrs by CCK8 assay; format: functional; conditions: MCF7, 72 h, read-out: GI
# [11] = test system: SK-OV-3; assay: Cytotoxicity against human SKOV3 cells assessed as inhibition of cell growth at 400 uM after 72 hrs by CCK8 assay; format: functional; conditions: SK-OV-3, 72 h, read-out: GI
# [12] = test system: SK-OV-3; assay: Cytotoxicity against human SKOV3 cells assessed as inhibition of cell growth at 4 uM after 72 hrs by CCK8 assay; format: functional; conditions: SK-OV-3, 72 h, read-out: GI
# [13] = test system: MCF7; assay: Cytotoxicity against human MCF7 cells assessed as inhibition of cell growth at 40 uM after 72 hrs by CCK8 assay; format: functional; conditions: MCF7, 72 h, read-out: GI
# [14] = test system: MCF7; assay: Cytotoxicity against human MCF7 cells assessed as inhibition of cell growth at 0.004 uM after 72 hrs by CCK8 assay; format: functional; conditions: MCF7, 72 h, read-out: GI
# [15] = test system: SK-OV-3; assay: Cytotoxicity against human SKOV3 cells assessed as inhibition of cell growth at 0.04 uM after 72 hrs by CCK8 assay; format: functional; conditions: SK-OV-3, 72 h, read-out: GI
# [16] = test system: MCF7; assay: Cytotoxicity against human MCF7 cells assessed as inhibition of cell growth after 72 hrs by CCK8 assay; format: functional, cell-based; conditions: MCF7, 72 h
# [17] = test system: SK-OV-3; assay: Cytotoxicity against human SKOV3 cells assessed as inhibition of cell growth after 72 hrs by CCK8 assay; format: functional, cell-based; conditions: SK-OV-3, 72 h
# [18] = molecular target: T1, Integrin alpha-V/beta-3; assay: Binding affinity to alphaVbeta3 integrin in human SKOV3 cells at 200 uM incubated for 3 hrs followed by compound washout prior to DBCO-Cy5 addition and measured after 1 hr by DAPI staining based fluorescence microscopic analysis; format: cell-based
smiles,measurement,setting,value
[N-]=[N+]=NCCCC(=O)NCCCC[C@@H]1NC(=O)[C@H](Cc2ccccc2)NC(=O)[C@H](CC(=O)O)NC(=O)CNC(=O)[C@H](CCCN=C(N)N)NC1=O,IC50,[1],110 µM
[N-]=[N+]=NCCCC(=O)N[C@@H](CCCNC(=N)N)C(=O)NCC(=O)N[C@@H](CC(=O)N[C@H]1CSSC[C@@H](C(=O)O)NC(=O)[C@H](CC(=O)O)NC(=O)CNC(=O)[C@H](CCCNC(=N)N)NC(=O)[C@H](CC(=O)O)NC(=O)CNC(=O)[C@H](CCCNC(=N)N)NC1=O)C(=O)N[C@@H](CCCNC(=N)N)C(=O)NCC(=O)N[C@@H](CC(=O)O)C(=O)NCCCC[C@@H]1NC(=O)[C@H](Cc2ccccc2)NC(=O)[C@H](CC(=O)O)NC(=O)CNC(=O)[C@H](CCCN=C(N)N)NC1=O,inhibition of growth at 0.004 µM,[2],19.5%
same,inhibition of growth at 0.0004 µM,[3],13.1%
same,inhibition of growth at 40 µM,[4],28.1%
same,IC50,[1],2.13 µM
same,inhibition of growth at 4 µM,[5],22.6%
same,inhibition of growth at 400 µM,[6],30.2%
same,inhibition of growth at 0.04 µM,[7],17.5%
same,inhibition of growth at 0.4 µM,[8],17.6%
same,inhibition of growth at 0.4 µM,[9],15.4%
same,inhibition of growth at 0.0004 µM,[10],18.3%
same,inhibition of growth at 400 µM,[11],28.8%
same,inhibition of growth at 4 µM,[12],23.9%
same,inhibition of growth at 40 µM,[13],23.8%
same,inhibition of growth at 0.004 µM,[14],13.4%
same,inhibition of growth at 0.04 µM,[15],14.4%
[N-]=[N+]=NCCCC(=O)N[C@@H](CCCNC(=N)N)C(=O)NCC(=O)N[C@@H](CC(=O)N[C@H]1CSSC[C@@H](C(=O)O)NC(=O)[C@H](CC(=O)O)NC(=O)CNC(=O)[C@H](CCCNC(=N)N)NC(=O)[C@H](CC(=O)O)NC(=O)CNC(=O)[C@H](CCCNC(=N)N)NC1=O)C(=O)N[C@@H](CCCNC(=N)N)C(=O)NCC(=O)N[C@@H](CC(=O)O)C(=O)N[C@@H](CCCNC(=N)N)C(=O)NCC(=O)N[C@@H](CC(=O)O)C(=O)NCCCC[C@@H]1NC(=O)[C@H](Cc2ccccc2)NC(=O)[C@H](CC(=O)O)NC(=O)CNC(=O)[C@H](CCCN=C(N)N)NC1=O,IC50,[1],24.5 µM
CC[C@H](C)[C@@H]([C@@H](CC(=O)N1CCC[C@H]1[C@H](OC)[C@@H](C)C(=O)N[C@H](C)[C@@H](O)c1ccccc1)OC)N(C)C(=O)[C@@H](NC(=O)[C@H](C(C)C)N(C)C(=O)OCc1ccc(NC(=O)[C@H](CCCNC(=N)N)NC(=O)[C@@H](NC(=O)CCCCC(=O)N2Cc3ccccc3-c3nnn(CCCC(=O)N[C@@H](CCCNC(=N)N)C(=O)NCC(=O)N[C@@H](CC(=O)O)C(=O)N[C@@H](CCCNC(=N)N)C(=O)NCC(=O)N[C@@H](CC(=O)N[C@H]4CSSC[C@@H](C(=O)O)NC(=O)[C@H](CC(=O)O)NC(=O)CNC(=O)[C@H](CCCNC(=N)N)NC(=O)[C@H](CC(=O)O)NC(=O)CNC(=O)[C@H](CCCNC(=N)N)NC4=O)C(=O)NCCCC[C@@H]4NC(=O)[C@H](Cc5ccccc5)NC(=O)[C@H](CC(=O)O)NC(=O)CNC(=O)[C@H](CCCN=C(N)N)NC4=O)c3-c3ccccc32)C(C)C)cc1)C(C)C,IC50,[16],19.9 µM
same,IC50,[17],0.44 µM
[N-]=[N+]=NCCCC(=O)N[C@@H](CCCNC(=N)N)C(=O)NCC(=O)N[C@@H](CC(=O)O)C(=O)N[C@@H](CCCNC(=N)N)C(=O)NCC(=O)N[C@@H](CC(=O)N[C@H]1CSSC[C@@H](C(=O)O)NC(=O)[C@H](CC(=O)O)NC(=O)CNC(=O)[C@H](CCCNC(=N)N)NC(=O)[C@H](CC(=O)O)NC(=O)CNC(=O)[C@H](CCCNC(=N)N)NC1=O)C(=O)NCCCC[C@@H]1NC(=O)[C@H](Cc2ccccc2)NC(=O)[C@H](CC(=O)O)NC(=O)CNC(=O)[C@H](CCCN=C(N)N)NC1=O,IC50,[1],4.2 µM
same,Activity,[18],Active
CC[C@H](C)[C@@H]([C@@H](CC(=O)N1CCC[C@H]1[C@H](OC)[C@@H](C)C(=O)N[C@H](C)[C@@H](O)c1ccccc1)OC)N(C)C(=O)[C@@H](NC(=O)[C@H](C(C)C)N(C)C(=O)OCc1ccc(NC(=O)[C@H](CCCNC(=N)N)NC(=O)[C@@H](NC(=O)CCCCC(=O)N2Cc3ccccc3-c3nnn(CCCC(=O)NCCCC[C@@H]4NC(=O)[C@H](Cc5ccccc5)NC(=O)[C@H](CC(=O)O)NC(=O)CNC(=O)[C@H](CCCN=C(N)N)NC4=O)c3-c3ccccc32)C(C)C)cc1)C(C)C,IC50,[16],93.2 µM
same,IC50,[17],4.5 µM
CC[C@H](C)[C@@H]([C@@H](CC(=O)N1CCC[C@H]1[C@H](OC)[C@@H](C)C(=O)N[C@H](C)[C@@H](O)c1ccccc1)OC)N(C)C(=O)[C@@H](NC(=O)[C@H](C(C)C)N(C)C(=O)OCc1ccc(NC(=O)[C@H](CCCNC(=N)N)NC(=O)[C@@H](NC(=O)CCCCC(=O)N2Cc3ccccc3C#Cc3ccccc32)C(C)C)cc1)C(C)C (X1-VR[PABC][NMeV]V[Dil][Dolaproine]-X2),IC50,[16],22.3 µM
same,IC50,[17],1 µM
[N-]=[N+]=NCCCC(=O)N[C@@H](CCCNC(=N)N)C(=O)NCC(=O)N[C@@H](CC(=O)O)C(=O)N[C@@H](CCCNC(=N)N)C(=O)NCC(=O)N[C@@H](CC(=O)NCCCC[C@@H]1NC(=O)[C@H](Cc2ccccc2)NC(=O)[C@H](CC(=O)O)NC(=O)CNC(=O)[C@H](CCCN=C(N)N)NC1=O)C(=O)NCCCC[C@@H]1NC(=O)[C@H](Cc2ccccc2)NC(=O)[C@H](CC(=O)O)NC(=O)CNC(=O)[C@H](CCCN=C(N)N)NC1=O,IC50,[1],8.9 µM
[N-]=[N+]=NCCCC(=O)N[C@@H](CCCNC(=N)N)C(=O)NCC(=O)N[C@@H](CC(=O)O)C(=O)N[C@@H](CCCNC(=N)N)C(=O)NCC(=O)N[C@@H](CC(=O)O)C(=O)NCCCC[C@@H]1NC(=O)[C@H](Cc2ccccc2)NC(=O)[C@H](CC(=O)O)NC(=O)CNC(=O)[C@H](CCCN=C(N)N)NC1=O,IC50,[1],25.1 µM
